# Assay results: patent publication US20090131468A1, “Bis-(Sulfonylamino) Derivatives in Therapy 065” (AstraZeneca AB, priority 2007, published 2009)
# Target: T1, human mPGES-1 (Homo sapiens, UniProt O14684)
# T1 sequence (O14684 1-152): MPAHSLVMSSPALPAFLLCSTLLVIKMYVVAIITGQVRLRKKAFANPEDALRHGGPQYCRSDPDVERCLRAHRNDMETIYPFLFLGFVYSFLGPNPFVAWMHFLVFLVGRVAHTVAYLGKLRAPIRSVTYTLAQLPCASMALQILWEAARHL
# Assay: Microsomal prostaglandin E synthase biochemical assay
# Settings: microsome preparation containing human mPGES-1; PGH2 10.8 μM, GSH 2.5 mM, pH 6.8; PGE2 quantified by HTRF; average of at least n=2
# Method: Compounds were tested as inhibitors of microsomal prostaglandin E synthase activity in microsomal prostaglandin E synthase assays and whole cell assays. These assays measure prostaglandin E2 (PGE2) synthesis which is taken as a measure of prostaglandin E synthase activity. Microsomal prostaglandin E synthase biochemical assays used microsomal prostaglandin E synthase-1 in microsomal preparations. The source of the microsomes can be for example interleukin-1β-stimulated human A549 cells (which express human mPGES-1) or Sf9 cells transfected with plasmids encoding human mPGES-1 cDNA.
# A solution of test compound was added to a diluted microsome preparation containing human mPGES-1 and pre-incubated for 15 minutes in potassium phosphate buffer pH 6.8 with cofactor glutathione (GSH). Corresponding solutions without test compound were used as positive controls, and corresponding solutions without test compound and without microsomes were used as negative controls. The enzymatic reaction was then started by addition of the substrate PGH2 in an organic solution (dry acetonitrile).
# The reaction was stopped after one minute by adding an acidic solution (pH 1.9) of ferric chloride and citrate (final concentrations 7 mM and 47 mM respectively), by which the PGH2 was sequestered (the PGH2 is reduced to mainly 12-hydroxy heptadecatrineoic acid (12-HHT) which is not detected by the subsequent PGE2 detection step). The resulting solution was then pH neutralized by addition of potassium phosphate buffer, prior to diluting an aliquot of the resulting solution in a weak potassium phosphate buffer (50 mM, pH 6.8) containing 0.2% BSA (w/v). […] The PGE2 formed was quantified by use of a commercial HTRF based kit (catalogue #62PG2PEC or #62P2APEC from Cisbio International). 100% activity was defined as the PGE2 production in positive controls subtracted by the PGE2 production in the negative controls. IC50 values were then determined using standard procedures.
row,IC50,Compound
1,580 nM,"NS(=O)(=O)c1ccccc1S(=O)(=O)NC(=O)c1ccc2[nH]c(Cc3ccccc3)cc2c1 [Example 158, 2-Benzyl-N-(2-sulfamoylphenylsulfonyl)-1H-indole-5-carboxamide]"
2,2000 nM,"NS(=O)(=O)c1ccccc1S(=O)(=O)NC(=O)c1ccc(C#Cc2cccnc2)nc1 [Example 95, 6-(Pyridin-3-ylethynyl)-N-(2-sulfamoylphenylsulfonyl)nicotinamide]"
3,14 nM,"CC(C)Oc1cc(C(=O)NS(=O)(=O)c2ccccc2S(N)(=O)=O)ccc1C#CC1CCCCC1 [Example 131, 4-(Cyclohexylethynyl)-3-isopropoxy-N-(2-sulfamoylphenylsulfonyl)benzamide]"
4,110 nM,"CC(C)Oc1cc(C(=O)NS(=O)(=O)c2ccccc2S(N)(=O)=O)ccc1C#CC1CC1 [Example 132, 4-(Cyclopropylethynyl)-3-isopropoxy-N-(2-sulfamoylphenylsulfonyl)benzamide]"
5,22 nM,"NS(=O)(=O)c1ccccc1S(=O)(=O)NC(=O)c1cnc(C#CC2CCCC2)c(Cl)c1 [Example 148, 5-Chloro-6-(cyclopentylethynyl)-N-(2-sulfamoylphenylsulfonyl)nicotinamide]"
6,350 nM,"CC(C)(C)C#Cc1ccc(C(=O)NS(=O)(=O)c2ccccc2S(N)(=O)=O)cn1 [Example 116, 6-(3,3-Dimethylbut-1-ynyl)-N-(2-sulfamoylphenylsulfonyl)nicotinamide]"
7,120 nM,"NS(=O)(=O)c1ccccc1S(=O)(=O)NC(=O)c1ccc(-c2cc3ccccc3o2)cc1Cl [Example 91, 4-(Benzofuran-2-yl)-2-chloro-N-(2-sulfamoylphenylsulfonyl)benzamide]"
8,20 nM,"COc1cc(C(=O)NS(=O)(=O)c2ccccc2S(N)(=O)=O)cnc1C#CC1CCCC1 [Example 137, 6-(Cyclopentylethynyl)-5-methoxy-N-(2-sulfamoylphenylsulfonyl)nicotinamide]"
9,80 nM,"CC(C)C#Cc1ccc(C(=O)NS(=O)(=O)c2ccccc2S(N)(=O)=O)cc1 [Example 113, 4-(3-Methylbut-1-ynyl)-N-(2-sulfamoylphenylsulfonyl)benzamide]"
10,650 nM,"NS(=O)(=O)c1ccccc1S(=O)(=O)NC(=O)c1ccc2oc(-c3ccccn3)cc2c1 [Example 122, 2-(Pyridin-2-yl)-N-(2-sulfamoylphenylsulfonyl)benzofuran-5-carboxamide]"
11,19 nM,"NS(=O)(=O)c1ccccc1S(=O)(=O)NC(=O)c1ccc(C#CC2CCCC2)cc1O [Example 92, 4-(Cyclopentylethynyl)-2-hydroxy-N-(2-sulfamoylphenylsulfonyl)benzamide]"
12,64 nM,"CC(C)(C)C#Cc1ncc(C(=O)NS(=O)(=O)c2ccccc2S(N)(=O)=O)cc1Cl [Example 149, 5-Chloro-6-(3,3-dimethylbut-1-ynyl)-N-(2-sulfamoylphenylsulfonyl)nicotinamide]"
13,9.9 nM,"CC(C)(O)C#Cc1cc(C(=O)NS(=O)(=O)c2ccccc2S(N)(=O)=O)ccc1-c1cc2ccccc2o1 [Example 154, 4-(Benzofuran-2-yl)-3-(3-hydroxy-3-methylbut-1-ynyl)-N-(2-sulfamoylphenyl-sulfonyl)benzamide]"

# Second part, the compound before the results:
row,Compound,IC50
1,"NS(=O)(=O)c1ccccc1S(=O)(=O)NC(=O)C1(c2ccccc2)CCCCC1 [Example 18, 1-Phenyl-N-(2-sulfamoylphenyl)sulfonyl-cyclohexane-1-carboxamide]",100 nM
2,"NS(=O)(=O)c1ccccc1S(=O)(=O)NC(=O)c1ccc(-c2cc3ccccc3o2)c(O)c1 [Example 51, 4-(Benzofuran-2-yl)-3-hydroxy-N-(2-sulfamoylphenylsulfonyl)benzamide]",3.4 nM
3,"NS(=O)(=O)c1ccccc1S(=O)(=O)NC(=O)c1ccc(-c2cc3ccccc3o2)cc1 [Example 3, 4-Benzofuran-2-yl-N-(2-sulfamoylphenyl)sulfonyl-benzamide]",5.8 nM
4,"CC(C)(C)c1ccc(C(=O)NS(=O)(=O)c2ccccc2S(N)(=O)=O)cc1 [Example 32, N-(2-Sulfamoylphenyl)sulfonyl-4-tert-butyl-benzamide]",1500 nM
5,"NS(=O)(=O)c1ccccc1S(=O)(=O)NC(=O)C1CC2CCC1C2 (stereo not shown) [Example 17, N-(2-Sulfamoylphenyl)sulfonylnorbornane-2-carboxamide]",9800 nM
6,"COCC#Cc1ccc(C(=O)NS(=O)(=O)c2ccccc2S(N)(=O)=O)cc1 [Example 53, 4-(3-Methoxyprop-1-ynyl)-N-(2-sulfamoylphenylsulfonyl)benzamide]",1600 nM
7,"NS(=O)(=O)c1ccccc1S(=O)(=O)NC(=O)c1ccc(C#Cc2ccccc2)cc1 [Example 72, 4-(Phenylethynyl)-N-(2-sulfamoylphenylsulfonyl)benzamide]",10 nM
8,"NS(=O)(=O)c1ccccc1S(=O)(=O)NC(=O)c1ccc(-c2nc3cccnc3o2)cc1 [Example 7, 4-(7Oxa-5,9-diazabicyclo [4.3.0]nona-2,4,8,10-tetraen-8-yl)-N-(2-sulfamoylphenyl)-sulfonyl-benzamide]",1000 nM
9,"Cc1cc(C#CC2CCCC2)ccc1C(=O)NS(=O)(=O)c1ccccc1S(N)(=O)=O [Example 67, 4-(Cyclopentylethynyl)-2-methyl-N-(2-sulfamoylphenylsulfonyl)benzamide]",85 nM
10,"COc1c(C#CC2CCCC2)ccc(C(=O)NS(=O)(=O)c2ccccc2S(N)(=O)=O)c1F [Example 86, 4-(Cyclopentylethynyl)-2-fluoro-3-methoxy-N-(2-sulfamoylphenylsulfonyl)benzamide]",71 nM
11,"NS(=O)(=O)c1ccccc1S(=O)(=O)NC(=O)c1ccc(-c2cc3ccccc3o2)cc1O [Example 49, 4-(Benzofuran-2-yl)-2-hydroxy-N-(2-sulfamoylphenylsulfonyl)benzamide]",8.1 nM
12,"CCC(O)(C#Cc1ccc(C(=O)NS(=O)(=O)c2ccccc2S(N)(=O)=O)cc1)CC [Example 56, 4-(3-Ethyl-3-hydroxypent-1-ynyl)-N-(2-sulfamoylphenylsulfonyl)benzamide]",2300 nM
13,"NS(=O)(=O)c1ccccc1S(=O)(=O)NC(=O)c1ccc(C#Cc2cccnc2)cc1 [Example 70, 4-(Pyridin-3-ylethynyl)-N-(2-sulfamoylphenylsulfonyl)benzamide]",320 nM
14,"NS(=O)(=O)c1ccccc1S(=O)(=O)NC(=O)c1ccc(-c2nc3cnccc3o2)cc1 [Example 6, 4-(7-Oxa-3,9-diazabicyclo [4.3.0]nona-2,4,8,10-tetraen-8-yl)-N-(2-sulfamoylphenyl)-sulfonyl-benzamide]",1100 nM
15,"NS(=O)(=O)c1ccccc1S(=O)(=O)NC(=O)c1ccc(C#CC2CCCC2)cc1 [Example 65, 4-(Cyclopentylethynyl)-N-(2-sulfamoylphenylsulfonyl)benzamide]",14 nM
16,"COc1c(C#CC(C)(C)C)ccc(C(=O)NS(=O)(=O)c2ccccc2S(N)(=O)=O)c1F [Example 90, 4-(3,3-Dimethylbut-1-ynyl)-2-fluoro-3-methoxy-N-(2-sulfamoylphenylsulfonyl)-benzamide]",260 nM
17,"NS(=O)(=O)c1ccccc1S(=O)(=O)NC(=O)c1ccc(C#CC2(O)CCCC2)cc1 [Example 58, 4-((1-Hydroxycyclopentyl)ethynyl)-N-(2-sulfamoylphenylsulfonyl)benzamide]",1900 nM
18,"CCC(C)(O)C#Cc1ccc(C(=O)NS(=O)(=O)c2ccccc2S(N)(=O)=O)cc1 (stereo not shown) [Example 57, 4-(3-Hydroxy-3-methylpent-1-ynyl)-N-(2-sulfamoylphenylsulfonyl)benzamide]",8800 nM
19,"NS(=O)(=O)c1ccccc1S(=O)(=O)NC(=O)c1ccc(-c2nc3ccccc3o2)cc1 [Example 8, 4-Benzooxazol-2-yl-N-(2-sulfamoylphenyl)sulfonyl-benzamide]",86 nM
20,"CCOC(=O)c1ccc(-c2ccc(C(=O)NS(=O)(=O)c3ccccc3S(N)(=O)=O)o2)cc1 [Example 41, Ethyl 4-[5-[(2-Sulfamoylphenyl)sulfonylcarbamoyl]-2-furyl]benzoate]",5400 nM
21,"NS(=O)(=O)c1ccccc1S(=O)(=O)NC(=O)c1ccc(OCc2ccccc2)cc1 [Example 30, 4-Phenylmethoxy-N-(2-sulfamoylphenyl)sulfonyl-benzamide]",160 nM
22,"COc1ccc(-c2cc3cc(C(=O)NS(=O)(=O)c4ccccc4S(N)(=O)=O)ccc3o2)cc1 [Example 75, 2-(4-Methoxyphenyl)-N-(2-sulfamoylphenylsulfonyl)benzofuran-5-carboxamide]",29 nM
23,"Cc1nc(-c2cccc(C(F)(F)F)c2)sc1C(=O)NS(=O)(=O)c1ccccc1S(N)(=O)=O [Example 22, 4-Methyl-N-(2-sulfamoylphenyl)sulfonyl-2-[3-(trifluoromethyl)phenyl]1,3-thiazole-5-carboxamide]",30 nM
24,"NS(=O)(=O)c1ccccc1S(=O)(=O)NC(=O)c1ccc(-c2cc3ccccc3o2)cn1 [Example 1, 5-Benzofuran-2-yl-N-(2-sulfamoylphenyl)sulfonyl-pyridine-2-carboxamide]",240 nM
